Measured values as given in US12247032B2, “Substituted pyrazolo[1,5-a]pyrimidines as inhibitors of JAK kinases” (Genentech, Inc., priority 2019, dated 2025).

test system: JAK1 pathway (P-STAT6 in TF-1 human erythroleukemia cells + IL-13); assay: P-STAT6 TF-1+Interleukin-13 (IL-13) assay; assay type: cell-based; conditions: Homo sapiens, TF-1, 0.5 h, TF-1 cells, 30 minutes compound, IL-13 10 minutes; IC50 by four-parameter fit; read-out: Cellular PSTAT6 TF-1 + IL13
Experimental: TF-1 human erythroleukemia cells (ATCC®; Manassas, VA; Catalog No. CRL-2003™) were grown in Roswell Park Memorial Institute (RPMI) medium supplemented with 10% heat-inactivated fetal bovine serum (FBS), 2 ng/mL granulocyte-macrophage colony-stimulating factor, 1× non-essential amino acids (NEAA), and 1 mM sodium pyruvate. The day before the assay, the cultures were transferred to Opti-MEM™, 1×NEAA, 1 mM sodium pyruvate, and 0.5% charcoal-stripped FBS (starve medium). Inhibitor stock solutions (5 mM in DMSO) were serially diluted 1:2 in DMSO to generate a 10-point concentration titration (at 500× test concentration), which was further diluted by a 50-fold dilution in Assay Medium (RPMI containing 1×NEAA and 1 mM sodium pyruvate) to generate a 10× concentration titration (in 2% DMSO). The cells (300,000 cells/well in 35 μL of Assay Medium) were seeded in 384-well Greiner plates. Diluted inhibitor at 10× concentration (5 μL) was added to the cells and the plates were incubated for 30 minutes at 37° C. in a humidified incubator. Cells were stimulated with the human recombinant cytokine at the respective EC90 concentrations, as previously determined for each individual lot. For the phosphorylated signal transducer and activator of transcription 6 (P-STAT6) TF-1+Interleukin-13 (IL-13) assay, 10 μL of 250 ng/mL IL-13 (R&D Systems; Minneapolis, MN) was added to the cells, which were then incubated for 10 minutes at 37° C. For the P-STAT5 TF-1+Erythropoietin (EPO) assay, 10 μL of 110 IU/mL EPO (Gibco Life Technologies, Catalog No. PHC2054) was added to the cells, which were then incubated for 30 min at 37° C. For both assays, the incubation was followed by addition to the cells of 5 μL of ice-cold 10× cell lysis buffer (Cell Signaling Technologies; Danvers, MA; Catalog No. 9803S) containing 1 mM phenylmethylsulfonyl fluoride (PMSF). Assay plates were frozen at −80° C. for a minimum of 1 hour. In the IL-13 assay, P-STAT6 was measured by coating goat anti-rabbit (GAR) plates (Meso Scale Discovery [MSD]; Rockville, MD; Catalog No. MSD L21RA-1) with rabbit anti-human total STAT6 antibody (Cell Signaling Technologies; Catalog No. 9362S), incubating the cell lysates in the coated plates overnight at 4° C., and then detecting with mouse anti-P-STAT6 (Tyr641) Clone 16E12 antibody (MilliporeSigma; Burlington, MA; Catalog No. 05-590, custom labeled by MSD with SULFO-tag) using standard MSD plate processing, washing, and detection protocols. In the EPO assay, P-STAT5 was detected using the phospho-STAT5a,b Whole Cell Lysate Kit (MSD; Catalog No. K150IGD-1). The electrochemiluminescence (ECL) signal of wells was read on the MESO SECTOR S600 (MSD) reader.
Data analysis was performed by subtracting the negative control (cytokine stimulated and 20 μM control inhibitor-treated cells) mean ECL value from the ECL value of all wells, determining percent of control for test compound well ECL values relative to the positive control (cytokine stimulated and DMSO-treated cells) mean ECL value, and determining the IC50 for test compounds with a four-parameter logistic fit model as shown in Equation 4.

IC50 [nM] | SMILES
6.9 | CN(C)CCN1CC(n2nnc(Cn3cc(NC(=O)c4cnn5cccnc45)c(-c4cc(Cl)ccc4OC(F)F)n3)n2)C1 [Example 37, N-[3-[5-chloro-2-(difluoromethoxy)phenyl]-1-[[2-[1-[2-(dimethylamino)ethyl]azetidin-3-yl]tetrazol-5-yl]methyl]pyrazol-4-yl]pyrazolo[1,5-a]pyrimidine-3-carboxamide]
21 | CN1CCC(N2CC(n3nnc(Cn4cc(NC(=O)c5cnn6cccnc56)c(-c5cc(OC(F)F)ccc5OC(F)F)n4)n3)C2)CC1 [Example 38, N-[3-[2,5-bis(difluoromethoxy)phenyl]-1-[[2-[1-(1-methyl-4-piperidyl)azetidin-3-yl]tetrazol-5-yl]methyl]pyrazol-4-yl]pyrazolo[1,5-a]pyrimidine-3-carboxamide]
51 | CSc1ccc(OC(F)F)c(-c2nn(Cc3nnn(C4CN(CCCN(C)C)C4)n3)cc2NC(=O)c2cnn3cccnc23)c1 [Example 58, N-[3-[2-(difluoromethoxy)-5-methylsulfanyl-phenyl]-1-[[2-[1-[3-(dimethylamino)propyl]azetidin-3-yl]tetrazol-5-yl]methyl]pyrazol-4-yl]pyrazolo[1,5-a]pyrimidine-3-carboxamide]
33 | CN(C)CCN1CCC(n2nnc(Cn3cc(NC(=O)c4cnn5cccnc45)c(-c4cc(OC(F)F)ccc4OC(F)F)n3)n2)CC1 [Example 61, N-[3-[2,5-bis(difluoromethoxy)phenyl]-1-[[2-[1-[2-(dimethylamino)ethyl]-4-piperidyl]tetrazol-5-yl]methyl]pyrazol-4-yl]pyrazolo[1,5-a]pyrimidine-3-carboxamide]
30 | CN(C)[C@H]1C[C@H](N2CC(n3nnc(Cn4cc(NC(=O)c5cnn6cccnc56)c(-c5cc(OC(F)F)ccc5OC(F)F)n4)n3)C2)C1 [Example 70, N-[3-[2,5-bis(difluoromethoxy)phenyl]-1-[[2-[1-[3-(dimethylamino)cyclobutyl]azetidin-3-yl]tetrazol-5-yl]methyl]pyrazol-4-yl]pyrazolo[1,5-a]pyrimidine-3-carboxamide]
62 | CN1CC(N2CC(n3nnc(Cn4cc(NC(=O)c5cnn6cccnc56)c(-c5cc(OC(F)F)ccc5OC(F)F)n4)n3)C2)C1 [Example 78, N-[3-[2,5-bis(difluoromethoxy)phenyl]-1-[[2-[1-(1-methylazetidin-3-yl)azetidin-3-yl]tetrazol-5-yl]methyl]pyrazol-4-yl]pyrazolo[1,5-a]pyrimidine-3-carboxamide; formic acid]
